Results on eight molecules are retold here after patent US20250389714A1, “PHARMACEUTICAL COMPOSITION FOR TREATING DISEASES RELATED TO TAUOPATHY” (SEOUL NATIONAL UNIVERSITY R&DB FOUNDATION, priority 2021, published 2025).

In experiment [1] the test system is RAGE-overexpressing SH-SY5Y cells. In words: Competition of tau oligomers and Aβ42 oligomers for uptake in RAGE-overexpressing SH-SY5Y cells. It is filed as cell-based, human. Conditions: increasing concentrations of DyLight 594-tau oligomers with 125 nM FITC-Aβ42 oligomers, 2 hours. On the procedure: FIG. 12b is a graph showing the results of analyzing […] and FITC intensities in RAGE-overexpressing SH-SY5Y cells. The cells were treated with increasing concentrations of DyLight 594-tau oligomers (red) in the presence of 125 nM FITC-Aβ42 oligomers (green) for 2 hours. Fluorescence images were acquired, and intracellular DyLight 594 and FITC intensities were measured. The data were presented as mean±SEM (n=3).

In a further experiment the target is T1, RAGE (Homo sapiens, UniProt Q15109).
T1 construct: RFP-tagged RAGE full-length (FL) or cytoplasmic domain deletion mutants (ΔCyto); expressed in transfected cells; host or cells: SH-SY5Y human neuroblastoma cells
T1 sequence (Q15109 23-404): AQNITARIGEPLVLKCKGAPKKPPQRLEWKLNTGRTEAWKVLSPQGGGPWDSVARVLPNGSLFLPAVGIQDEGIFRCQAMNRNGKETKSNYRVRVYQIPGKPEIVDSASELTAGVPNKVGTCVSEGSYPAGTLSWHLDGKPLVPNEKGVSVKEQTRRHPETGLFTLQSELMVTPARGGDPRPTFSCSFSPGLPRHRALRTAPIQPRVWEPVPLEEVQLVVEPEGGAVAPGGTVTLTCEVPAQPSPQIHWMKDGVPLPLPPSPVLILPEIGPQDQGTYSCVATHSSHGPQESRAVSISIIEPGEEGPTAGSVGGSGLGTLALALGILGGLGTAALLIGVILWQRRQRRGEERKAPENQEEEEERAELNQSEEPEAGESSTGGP
Nature of the experiment: Cell binding assay and calculation of dissociation constant (Kd) for RAGE binding. The note with it: monomer equivalents of total Aβ42 or total tau; biotin-labeled oligomers, RAGE-overexpressing SH-SY5Y cells, 2 hours. The method, then:
FIG. 2c is a graph showing the results of analyzing RAGE binding affinities of tau oligomers (oTau) and Aβ42 oligomers (oAβ42). RAGE-overexpressing SH-SY5Y cells were treated with biotin-tau or Aβ42 oligomers for 2 hours, and the cell-bound biotin signal intensities in FIG. 12a were measured. The data were presented as mean±SEM (n=3-5), and the Kd of binding values were obtained from nonlinear regression analysis of saturated binding.
The purified tau monomers of the present invention were biotinylated using the Ez-Link Sulfo-NHS-LC-Biotinylation kit (Thermo Scientific) and then fibrillated as described above to form oligomers and fibrils. SH-SY5Y cells were transfected with RAGE cDNA for 24 hours and incubated with biotin-tau protein for 2 hours. Primary cortical neurons from WT and Rage KO mice (DIV 7) were then incubated with various concentrations of biotin-tau oligomers for 24 hours to estimate the Kd value for tau binding to RAGE. Cells were washed with Tris-buffered saline (TBS) and fixed with 4% paraformaldehyde for 20 min. The cells were then blocked with 10% FBS and 0.1% Triton X-100 in TBS for 1 hour and incubated with streptavidin-alkaline phosphatase conjugate (1:2000, Roche) at 4° C. for 16 hours. After washing with TBS, bound biotin-tau was visualized for 10 min using the […] liquid substrate system (Sigma-Aldrich). Images were acquired using INCell Analyzer 2000, and cell-bound biotin signals were measured using Image J. Kd values estimated for RAGE-binding were obtained from nonlinear regression analysis of saturated binding using Prism (GraphPad Software).

Experiment [2] addresses human RAGE (receptor for advanced glycation end products), full-length, overexpressed in SH-SY5Y cells (human) (UniProt Q15109). Nature of the experiment: cell-based or functional assay.
Experiment [3] concerns primary cortical neurons or hippocampal neurons. Nature of the experiment: Tau infection assay in primary cultured neurons. Conditions: 500 nM DyLight 488-tau oligomers, 24 hours.
In a further experiment the test system is rTg4510 mice. Nature of the experiment: Behavioral tests (Y-maze, novel object recognition, passive avoidance) in rTg4510 mice. The format is in vivo, mouse. Conditions: 1 mg/kg/day intraperitoneally, daily for 2.5 months from 2 months of age; tests at 4.5 months.
Experiment [4] concerns RAGE-expressing SH-SY5Y cells. Nature of the experiment: Tau infection (intracellular DyLight 488-tau oligomers) in RAGE-expressing SH-SY5Y cells. It is filed as cell-based, human. Conditions: increasing concentrations of antagonist, 4 hours, 500 nM DyLight 488-tau oligomers. On the procedure:
(right) for 4 hours in the presence of 500 nM DyLight 488-tau or 125 nM FITC-Aβ42 oligomers. Fluorescence images were acquired, and intracellular DyLight 488 and FITC intensities were measured. The data were presented as mean±SEM (n=4).

The target of experiment [5] is T2, high molecular weight (HMW, 10-20 units) tau oligomers of 6xHis tagged human 0N4R tau (human, UniProt P10636-6 1-383, biotinylated or labelled with DyLight 488, depending on the assay; sites not stated).
T2 construct: also called HMW tau oligomers; not shown: 6xHis tag from the pET-His vector
T2 sequence (P10636 other isoform, or with tags, fused parts or gaps): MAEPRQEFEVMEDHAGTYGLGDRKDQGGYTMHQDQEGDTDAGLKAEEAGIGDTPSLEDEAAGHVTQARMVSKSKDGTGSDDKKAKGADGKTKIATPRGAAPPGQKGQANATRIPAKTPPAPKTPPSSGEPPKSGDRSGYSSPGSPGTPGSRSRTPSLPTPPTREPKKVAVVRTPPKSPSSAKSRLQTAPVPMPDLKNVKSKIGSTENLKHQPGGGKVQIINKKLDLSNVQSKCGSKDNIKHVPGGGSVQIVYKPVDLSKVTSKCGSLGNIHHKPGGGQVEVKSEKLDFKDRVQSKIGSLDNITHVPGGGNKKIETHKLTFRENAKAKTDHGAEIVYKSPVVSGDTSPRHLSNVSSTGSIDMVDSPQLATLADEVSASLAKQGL
Nature of the experiment: cell binding assay: biotin-labelled HMW tau oligomers for 24 h on primary cortical neurons, streptavidin-alkaline phosphatase, BCIP/NBT; nonlinear regression of saturation binding; dashed ΔRage curve, whose points equal WT minus Rage KO; concentration as tau monomer equivalent.

Experiment [6] addresses T3, low molecular weight (LMW, 2-4 units) tau oligomers of 6xHis tagged human 0N4R tau (human, UniProt P10636-6 1-383, biotinylated or labelled with DyLight 488, depending on the assay; sites not stated).
T3 construct: also called LMW tau oligomers; not shown: 6xHis tag from the pET-His vector
Nature of the experiment: cell binding assay: biotin-labelled LMW tau oligomers for 24 h on primary cortical neurons, streptavidin-alkaline phosphatase, BCIP/NBT; nonlinear regression of saturation binding; dashed ΔRage curve, whose points equal WT minus Rage KO; concentration as tau monomer equivalent.

“Also recorded” adds a separate entry of the source.

T3 sequence (P10636 other isoform, or with tags, fused parts or gaps): as above
Chain of human RAGE (receptor for advanced glycation end products), full-length, overexpressed in SH-SY5Y cells (human) (Q15109 23-404): as the sequence (Q15109 23-404) above

As to “tau oligomers: oligomers of recombinant 6×His tagged human 0N4R tau formed with heparin”, in experiment [1], the “intracellular transfection of Aβ42 oligomers” value is given as “efficiently reduced the intracellular transfection of Aβ42 oligomers”.
As to “HMW tau oligomers: high molecular weight tau oligomers (10-20 units) of recombinant human 0N4R tau”, the dissociation constant (Kd) in the experiment with RAGE was 51 nM.
The same measure, in the same setting: the figure for “LMW tau oligomers: low molecular weight tau oligomers (2-4 units) of recombinant human 0N4R tau” is 205 nM.
The molecule “DyLight 488-tau aggregates (His-tagged human tau aggregated with heparin, used in the cDNA screen) (from UniProt P10636 1-383) (ligand)” displayed an Intracellular DyLight 488 Intensities (AU) in experiment [2] of 9.55 AU.
With “Aβ42 oligomers: oligomers prepared from synthetic biotin- or FITC-labeled Aβ42 peptide (rPeptide)”, the Kd in the experiment with RAGE is 17 nM.
For heparin, the “tau oligomer transfection into Rage KO neurons” value in experiment [3] (Rage KO neurons, 15 U/ml heparin) is on record as “efficiently blocked”. Moreover, the “neuronal uptake of tau oligomers into WT neurons” value in experiment [3] (WT neurons, 15 U/ml heparin) is on record as “reduced neuronal uptake of tau oligomers”.
`O=C(c1ccc(Cl)cc1)N(Cc1ccccc1)C1CCCCC1` [FPS-ZM1]: in experiment [3] (WT cortical neurons, 1 μM antagonist), the “tau infection into neurons” value is given as “inhibited tau infection; also recorded: reduces neuronal tau infection”. Further, the “cognitive function (spatial and working memory) of rTg4510 mice” value with rTg4510 mice was “significantly alleviated cognitive impairment; also recorded: significant retention of spatial and working memory; also recorded: ameliorated the behavioral impairment”. In addition, in experiment [4], the “tau infection into RAGE-expressing SH-SY5Y cells” value is on record as “inhibited tau infection”.

B1: mouse RAGE, endogenous, on primary cultured WT mouse neurons (against Rage KO neurons) (receptor, UniProt Q62151 23-402, looked up)
chain: GQNITARIGEPLVLSCKGAPKKPPQQLEWKLNTGRTEAWKVLSPQGGPWDSVARILPNGSLLLPATGIVDEGTFRCRATNRRGKEVKSNYRVRVYQIPGKPEIVDPASELTASVPNKVGTCVSEGSYPAGTLSWHLDGKLLIPDGKETLVKEETRRHPETGLFTLRSELTVIPTQGGTHPTFSCSFSLGLPRRRPLNTAPIQLRVREPGPPEGIQLLVEPEGGIVAPGGTVTLTCAISAQPPPQVHWIKDGAPLPLAPSPVLLLPEVGHEDEGTYSCVATHPSHGPQESPPVSIRVTETGDEGPAEGSVGESGLGTLALALGILGGLGVVALLVGAILWRKRQPRREERKAPESQEDEEERAELNQSEEAEMPENGAGGP
notes: whole, on cells
With B1, the Kd amounted to 25 nM in experiment [5] and 43.5 nM in experiment [6].
